The values that follow come from patent publication US20100260674A1, “QUINAZOLINE DERIVATIVES AND METHODS OF TREATMENT” (Concert Pharmaceuticals, Inc., priority 2006, published 2010).

Structures can show the parent of a compound that is named as a salt.

One data set is described as follows: Metabolic stability in pooled human liver microsomes. As to conditions: 0.5 mg/mL HLM. As for the experimental part: The metabolic stability of compounds of the invention was tested using pooled liver microsomal incubations. Full scan LC-MS analysis was then performed to detect major metabolites. Samples of the test compounds, exposed to pooled human liver microsomes, were analyzed using HPLC-MS (or MS/MS) detection. For determining metabolic stability, multiple reaction monitoring (MRM) was used to measure the disappearance of the test compounds. Q1 full scans were used to detect the major metabolites.
Experimental Procedures. Human liver microsomes (“HLM”; 20 mg/mL) are obtained from Xenotech, LLC (Lenexa, Kans.). β-nicotinamide adenine dinucleotide phosphate, reduced form (NADPH), magnesium chloride (MgCl2), and dimethyl sulfoxide (DMSO) are purchased from Sigma-Aldrich.
Stock solutions of test compounds (7.5 mM) were prepared in DMSO. […] The 20 mg/mL human liver microsomes were diluted to 0.625 mg/mL in 0.1 M potassium phosphate buffer, pH 7.4, containing 3 mM MgCl2. The diluted microsomes (375 μL) were added to wells of a 96-well deep-well polypropylene plate in triplicate. […] Reactions were initiated by addition of 125 μL of pre-warmed NADPH solution (8 mM NADPH in 0.1M potassium phosphate buffer, pH 7.4, containing 3 mM MgCl2). […] The reaction mixtures were incubated at 37° C., and 50 μL aliquots were removed at 0, 5, 10, 20, and 30 minutes and added to shallow-well 96-well plates which contained 50 μL of ice-cold ACN with internal standard to stop the reactions. The plates were stored at 4° C. for 20 minutes after which 100 μL of water was added to the wells of the plate before centrifugation to pellet precipitated proteins. Supernatants were transferred to another 96-well plate and analyzed for amounts of parent remaining by LC-MS/MS using an Applied Bio-systems API 4000 mass spectrometer.
The in vitro t1/2s for test compounds were calculated from the slopes of the linear regression of % parent remaining (ln) vs incubation time relationship. in vitro t1/2=0.693/k, where k=−[slope of linear regression of % parent remaining(ln) vs incubation time]. Data analysis was performed using Microsoft Excel Software.
For the compound `[2H]C([2H])([2H])OC([2H])([2H])COc1cc2ncnc(Nc3cccc(C#C)c3)c2cc1OCC([2H])([2H])OC([2H])([2H])[2H]` [Compound 109, N-(3-(Ethynyl-d1)phenyl)-6,7-bis(2-(methoxy-d3)-2,2-d2-ethoxy) quinazolin-4-amine], the “longer t1/2 compared to erlotinib” value is listed as 44%.

The data set is the same for the next values; noted with them: human, microsomes, pH 7.4.
What is called half-life is the time needed for the level to fall by half in the phase considered. Lower therefore signals fast loss. Consider `[2H]C#Cc1cccc(Nc2ncnc3cc(OCCOC)c(OCCOC)cc23)c1` [Compound 110, N-(3-(Ethynyl-d1)phenyl)-6,7-bis(2-methoxyethoxy) quinazolin-4-amine hydrochloride], for which the half-life at 1 μM came to 42.7 min. On the same count and under the same terms, to `[2H]C([2H])([2H])OC([2H])([2H])COc1cc2ncnc(Nc3cccc(C#C)c3)c2cc1OCC([2H])([2H])OC([2H])([2H])[2H]` [Compound 109, N-(3-(Ethynyl-d1)phenyl)-6,7-bis(2-(methoxy-d3)-2,2-d2-ethoxy) quinazolin-4-amine] belongs 83.5 min; to `[2H]C([2H])([2H])OCCOc1cc2ncnc(Nc3cccc(C#C)c3)c2cc1OCCOC([2H])([2H])[2H]` [Compound 105, N-(3-Ethynylphenyl)-6,7-bis(2-(methoxy-d3)ethoxy)quinazolin-4-amine hydrochloride], 62.3 min. For the compound `[2H]C([2H])(COc1cc2ncnc(Nc3cccc(C#C)c3)c2cc1OCC([2H])([2H])OC)OC` [Compound 106, N-(3-ethynylphenyl)-6,7-bis(2-methoxyethoxy)quinazolin-4-amine], the half-life at 1 μM was 43.8 min. On the same count and under the same terms, to `C#Cc1cccc(Nc2ncnc3cc(OCCOC)c(OCCOC)cc23)c1` [erlotinib, N-(3-ethynylphenyl)-6,7-bis(2-methoxyethoxy)quinazolin-4-amine, reference compound] belongs 57.8 min.
